Measurements reported in patent US20040204487A1, “Novel medicinal product” (priority 2002, published 2004).
“Also recorded” adds a separate entry of the source.

Tests used:
3T3-F442A cells [1] = test: Triacylglyceride accumulation in differentiating 3T3-F442A pre-adipocytes; format: cell-based, murine; details: for Triacylglycerides (μg/mg protein): 10 μM from confluency, control (no treatment) 0.16; for Triacylglycerides (μg/mg protein) / inhibition of cell differentiation (in words) / concentration of TAGs in the adipocytes, % relative to the control: 7 days; for inhibition of cell differentiation (in words): 10 μM; for concentration of TAGs in the adipocytes, % relative to the control: control 100% (FIG. 2)
Procedure: The pre-adipocyte lines 3T3-F442A (commercial line) and BFC 115 (from Claude Forest INSERM, St. Pères Paris V) are cultured until confluency in Dulbecco's modified Eagle medium (DMEM) (Gibco) in the presence of 5% of newborn calf serum and 5% of fetal calf serum (Gibco).
From confluency, the cells are cultured in a differentiating medium (DMEM with 10% of fetal calf serum and 20 nM of insulin) in the presence or absence of the metabolites to be tested.
The medium is renewed every two or three days.
The differentiation of the cells is evaluated either by morphological criteria (very rounded cells having accumulated large lipid vacuoles) or by measuring the average amount of triglycerides per cell (ratio of the amount of triglyceride per dish to the amount of protein per dish). Under standard culture conditions, in 8 days, 90% of the pre-adipocytes have differentiated to adipocytes.
The cells are washed with PBS phosphate buffer (Sigma), recovered from the bottom of the Petri dish by scraping with a spatula, fragmented by ultrasound (2 seconds) and then centrifuged at 10000 g for 20 minutes.
The centrifugation supernatant is removed for triacylglyceride (TAG) analysis.
To determine the average amount of triglycerides per cell at the end of the abovementioned experiments, an automated enzymatic colorimetric test (Roche method) which is based on the studies of Wahlefeld (Wahlefeld and Bergmeyer (eds). Methods of Enzymatic Analysis. 2 second edition. New York Academic Press Inc. 1974: 1831) was used as assaying method.
The 3T3-F442A pre-adipocyte cells were treated from confluency with 12(R)-HETE (10 μM), 12(S)-HETE (10 μM), 11,12-EET (10 μM) and with Δ 15-deoxy prostaglandin J2 (10 μM, Δ 15-deoxyPGJ2) in the presence or absence of 10 μM of 12(R)-HETE. The cell differentiation was evaluated after 7 days by measuring, as indicated above, the amount of triacylglycerides accumulated per mg of protein.
To do this, 3T3-F442A fibroblasts, or pre-adipocyte cells, were treated from confluency with various concentrations of 12(R)-HETE. The cell differentiation was evaluated after 7 days by measuring the amount of triacylglycerides (TAGs) accumulated per mg of protein (prot).

[2] = system: cells from human adipose tissue; test: Triglyceride accumulation in cells from human adipose tissue; format: cell-based; details: 10 μM, pro-differentiating medium, three experiments
Description: In addition, cells originating from human fat tissues subsequent to surgical interventions requiring their removal were used. The removed tissues are collected on a bed of ice and immediately treated in the laboratory. The cell culture consists of a mixture of pre-adipocyte cells and adipocyte cells already differentiated.

[3] = system: BFC-115 pre-adipocyte cells; test: Triacylglyceride accumulation in differentiating BFC-115 pre-adipocytes; format: cell-based, murine; details: 7 days; for Amount of TAG in μg/mg of protein: control 0.45; for inhibition of the differentiation of the pre-adipocytes: 10 μM
Procedure: The pre-adipocyte lines 3T3-F442A (commercial line) and BFC 115 (from Claude Forest INSERM, St. Pères Paris V) are cultured until confluency in Dulbecco's modified Eagle medium (DMEM) (Gibco) in the presence of 5% of newborn calf serum and 5% of fetal calf serum (Gibco). From confluency, the cells are cultured in a differentiating medium (DMEM with 10% of fetal calf serum and 20 nM of insulin) in the presence or absence of the metabolites to be tested. The medium is renewed every two or three days. The differentiation of the cells is evaluated either by morphological criteria (very rounded cells having accumulated large lipid vacuoles) or by measuring the average amount of triglycerides per cell (ratio of the amount of triglyceride per dish to the amount of protein per dish). Under standard culture conditions, in 8 days, 90% of the pre-adipocytes have differentiated to adipocytes. […] The BFC-115 pre-adipocyte cells were treated from confluency with 12(R)-HETE (10 μM), 12(S)-HETE (10 μM), 11,12-EET (10 μM) and with arachidonic acid AA (100 μM). The cell differentiation was evaluated after 7 days by measuring the amount of triacylglycerides accumulated per mg of protein.

[4] = system: differentiated 3T3-F442A cells; test: Residual level of metabolite in culture medium of differentiated cells (LC-MS); format: in vitro ADME, murine; details: 10 μM
Procedure: It was also determined that the residual level of 12(R)-HETE, present at a concentration of 10 μM in the culture medium of the differentiated 3T3-F442A cells, is respectively 85% and 2.3% after 6 h and 18 h of incubation.
The residual amounts of 12(R)-HETE were analyzed by LC-MS.

[5] = Cellular toxicity markers after 8 days of treatment; format: cell-based; details: 30 μM
Procedure: The possible toxicity of the metabolites selected in accordance with the invention was also studied.
For this purpose, several cellular toxicity markers were measured after 8 days of treatment, namely
the LDH (lactate dehydrogenase) activity in the culture medium, a control for membrane permeabilization,
fragmentation of the nucleus by “Hoechst” staining, which is a marker for apoptosis and which is described in Leukemia, 15, 1572-81. Plenchette, S., Moutet M., Benguella M., N'Gondara J. P., Guigner F., Coffe C., Corcos L., Bettaieb A. and Solary E. (2001).

3T3-F442A cells [6] = test: Direct morphological examination of differentiation of fibroblasts to adipocytes; format: cell-based, murine
Procedure: The differentiation of the cells is evaluated either by morphological criteria (very rounded cells having accumulated large lipid vacuoles) or by measuring the average amount of triglycerides per cell (ratio of the amount of triglyceride per dish to the amount of protein per dish). Under standard culture conditions, in 8 days, 90% of the pre-adipocytes have differentiated to adipocytes. To show by direct morphological examination the differentiation of the fibroblasts to adipocytes in the presence or absence of the metabolites 12-HETE and/or 11,12-EET, the following procedure was carried out. The 3T3-F442A cells are treated, from confluency, with these metabolites. The treatment was renewed every 2 or 3 days throughout the entire differentiation process. The level of differentiation of the cells was evaluated by observation under a photon microscope with a 200 times magnification (see the photos shown in figures FIG. 1A, FIG. 1A1, FIG. 1B and FIG. 1B1).

[7] = system: pre-adipocyte fibroblasts; details: cited from earlier work

SMILES | Triacylglycerides (μg/mg protein) (3T3-F442A cells [1]) | inhibition of cell differentiation (in words) (3T3-F442A cells [1]) | inhibition of the accumulation of triglycerides [2] [%] | Amount of TAG in μg/mg of protein ([3]; 10 μM from confluency) | inhibition of the differentiation of the pre-adipocytes [3] | other results
CCCCC/C=C\CC1OC1C/C=C\C/C=C\CCCC(=O)O (stereo not drawn) [11,12-EET, 11,12-epoxyeicosatrienoic acid] | 0.08 | greatly inhibit the cell differentiation | 50 | =0.22 μg/mg of protein | approximately 40% | 
CCCCC/C=C\C[C@@H](O)/C=C/C=C\C/C=C\CCCC(=O)O [12(R)-HETE, 12-hydroxyeicosatetraenoic acid] | 0.04 | greatly inhibit the cell differentiation; also recorded: greater than that of 12(S)-HETE | 50 | =0.17 μg/mg of protein | approximately 40% | concentration of TAGs in the adipocytes, % relative to the control (3T3-F442A cells [1]; 5 μM): approximately 85%; inhibition of the differentiation induced by Δ 15-deoxyprostaglandin J2 (3T3-F442A cells [1]; 10 μM 12(R)-HETE with 10 μM 15-deoxyPGJ2, 7 days): approximately 40%; concentration of TAGs in the adipocytes, % relative to the control (3T3-F442A cells [1]; 30 μM): approximately 25%; penetration into the cells (conclusion from residual level) [4]: clearly penetrates into the cells; residual level in the culture medium ([4]; after 6 h of incubation): 85%; residual level in the culture medium ([4]; after 18 h of incubation): 2.3%; cellular toxicity markers (number of cells, cell morphology, LDH activity in medium, fragmentation of the nucleus by Hoechst staining) [5]: None of these markers responds positively; cell morphology under photon microscope (3T3-F442A cells [6]; 10 μM, 7 days, with or without 100 μM arachidonic acid (FIG. 1A1, 1B1)): spindle-shaped with very few lipid globules
CCCCC/C=C\C[C@@H](O)/C=C/C=C\C/C=C\CCCC(=O)O [12(S)-HETE, 12-hydroxyeicosatetraenoic acid] | 0.07 | greatly inhibit the cell differentiation |  | =0.28 μg/mg of protein | approximately 40% | 
CCCCC/C=C/C=C1/C(=O)C=C[C@@H]1C/C=C\CCCC(=O)O [15-deoxyPGJ2, 15-deoxy-Δ^12,14-prostaglandin J2, reference compound] | 0.52 |  |  |  |  | concentrations at which differentiation is accelerated [7]: 10^−5 to 10^−6 M
CCCCC/C=C\C/C=C\C/C=C\C/C=C\CCCC(=O)O [AA, arachidonic acid, reference compound] |  |  |  |  |  | Amount of TAG in μg/mg of protein ([3]; 100 μM from confluency): =0.55 μg/mg of protein; effect on differentiation (in words) ([3]; 100 μM): clearly promotes the differentiation; cell morphology under photon microscope (3T3-F442A cells [6]; 100 μM from confluency (FIG. 1B)): increases the amount of cells differentiated into adipocytes
